From ChEMBL document CHEMBL4507276 (2021)

What was measured:
[1] = target: Glycogen synthase kinase-3 alpha (Homo sapiens) (UniProt P49840); assay: GSK3A Invitrogen selectivity data (BI); conditions: Compound concentration 3.0 uM
[2] = target: Cysteinyl leukotriene receptor 1 (Homo sapiens) (UniProt Q9Y271); assay: CYSLT1_HS Eurofins-Panlabs selectivity data (BI); conditions: Compound concentration 10.0 uM
[3] = target: T1, 5-hydroxytryptamine receptor 1A (Homo sapiens) (UniProt P08908); assay: 5HT1A/HU Eurofins-Panlabs selectivity data (BI); conditions: Compound concentration 10.0 uM
T1 sequence (whole entry): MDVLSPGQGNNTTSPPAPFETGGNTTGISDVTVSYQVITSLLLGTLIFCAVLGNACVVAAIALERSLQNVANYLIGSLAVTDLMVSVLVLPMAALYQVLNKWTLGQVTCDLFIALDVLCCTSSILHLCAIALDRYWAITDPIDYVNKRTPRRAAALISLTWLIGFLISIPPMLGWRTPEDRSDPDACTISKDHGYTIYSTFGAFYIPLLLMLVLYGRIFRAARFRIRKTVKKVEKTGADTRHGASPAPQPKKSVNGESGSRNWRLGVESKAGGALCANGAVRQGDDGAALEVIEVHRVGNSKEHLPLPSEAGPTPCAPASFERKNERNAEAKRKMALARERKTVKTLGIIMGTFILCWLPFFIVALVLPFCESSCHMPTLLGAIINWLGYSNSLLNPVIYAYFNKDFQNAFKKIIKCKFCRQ

[4] = target: Angiopoietin-1 receptor (Homo sapiens) (UniProt Q02763); assay: TEK Invitrogen selectivity data (BI); conditions: Compound concentration 3.0 uM
[5] = target: Tyrosine-protein kinase FRK (Homo sapiens) (UniProt P42685); assay: FRK Invitrogen selectivity data (BI); conditions: Compound concentration 3.0 uM
Chain of Tyrosine-protein kinase FRK (Homo sapiens) (P42685 whole entry): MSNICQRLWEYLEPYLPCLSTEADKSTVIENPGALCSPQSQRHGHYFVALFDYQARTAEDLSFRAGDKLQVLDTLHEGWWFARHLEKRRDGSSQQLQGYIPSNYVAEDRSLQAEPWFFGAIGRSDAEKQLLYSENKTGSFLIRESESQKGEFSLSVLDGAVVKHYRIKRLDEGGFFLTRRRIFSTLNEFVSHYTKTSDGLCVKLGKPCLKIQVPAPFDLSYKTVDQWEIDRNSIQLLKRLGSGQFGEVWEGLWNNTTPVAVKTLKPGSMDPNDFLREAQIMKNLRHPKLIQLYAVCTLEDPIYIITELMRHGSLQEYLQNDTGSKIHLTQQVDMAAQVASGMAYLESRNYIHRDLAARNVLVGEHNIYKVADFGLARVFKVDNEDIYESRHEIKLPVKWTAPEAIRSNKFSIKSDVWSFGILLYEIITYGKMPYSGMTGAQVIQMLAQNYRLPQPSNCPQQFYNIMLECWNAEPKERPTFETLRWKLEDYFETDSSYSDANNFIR

[6] = target: Serine/threonine-protein kinase pim-2 (Homo sapiens) (UniProt Q9P1W9); assay: PIM2 Invitrogen selectivity data (BI); conditions: Compound concentration 3.0 uM
[7] = test system: Proto-oncogene tyrosine-protein kinase receptor Ret (Homo sapiens), P07949 [Y791F]; assay: RET Y791F Invitrogen selectivity data (BI); conditions: Compound concentration 3.0 uM
Chain of Proto-oncogene tyrosine-protein kinase receptor Ret (Homo sapiens), P07949 [Y791F] (P07949 whole entry Y791F): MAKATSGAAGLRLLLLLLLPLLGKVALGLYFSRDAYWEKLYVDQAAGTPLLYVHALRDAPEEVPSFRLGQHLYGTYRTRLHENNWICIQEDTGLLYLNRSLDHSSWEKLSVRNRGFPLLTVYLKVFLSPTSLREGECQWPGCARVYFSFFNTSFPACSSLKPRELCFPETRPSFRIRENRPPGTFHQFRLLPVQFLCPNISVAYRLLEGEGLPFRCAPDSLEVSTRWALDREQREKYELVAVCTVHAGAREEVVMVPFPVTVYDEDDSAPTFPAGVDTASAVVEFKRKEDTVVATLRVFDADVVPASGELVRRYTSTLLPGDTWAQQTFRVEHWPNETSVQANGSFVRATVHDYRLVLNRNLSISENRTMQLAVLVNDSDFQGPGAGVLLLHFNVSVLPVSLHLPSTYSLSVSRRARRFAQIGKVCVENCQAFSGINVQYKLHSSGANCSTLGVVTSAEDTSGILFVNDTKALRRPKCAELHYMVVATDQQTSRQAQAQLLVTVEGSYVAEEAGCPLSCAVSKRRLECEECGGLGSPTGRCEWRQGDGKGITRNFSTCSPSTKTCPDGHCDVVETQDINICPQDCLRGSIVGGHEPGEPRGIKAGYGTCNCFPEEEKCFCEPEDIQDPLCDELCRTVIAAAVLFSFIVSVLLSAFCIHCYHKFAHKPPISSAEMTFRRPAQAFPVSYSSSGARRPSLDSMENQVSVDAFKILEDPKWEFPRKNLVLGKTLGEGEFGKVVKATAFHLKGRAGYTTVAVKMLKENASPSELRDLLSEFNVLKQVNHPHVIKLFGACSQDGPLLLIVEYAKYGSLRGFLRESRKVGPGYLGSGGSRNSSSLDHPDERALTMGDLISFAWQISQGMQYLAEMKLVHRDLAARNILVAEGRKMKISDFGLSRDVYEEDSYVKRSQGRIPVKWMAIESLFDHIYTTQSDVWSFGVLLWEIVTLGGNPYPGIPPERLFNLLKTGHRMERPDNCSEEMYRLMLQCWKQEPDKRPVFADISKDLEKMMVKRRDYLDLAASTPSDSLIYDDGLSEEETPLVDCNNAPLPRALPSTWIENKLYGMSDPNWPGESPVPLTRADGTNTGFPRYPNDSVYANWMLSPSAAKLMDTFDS

[8] = target: Motilin receptor (Homo sapiens) (UniProt O43193); assay: MOTILINH_AGON Cerep selectivity data (BI); conditions: filed as agonist, Compound concentration 20.0 uM
Chain of Motilin receptor (Homo sapiens) (O43193 whole entry): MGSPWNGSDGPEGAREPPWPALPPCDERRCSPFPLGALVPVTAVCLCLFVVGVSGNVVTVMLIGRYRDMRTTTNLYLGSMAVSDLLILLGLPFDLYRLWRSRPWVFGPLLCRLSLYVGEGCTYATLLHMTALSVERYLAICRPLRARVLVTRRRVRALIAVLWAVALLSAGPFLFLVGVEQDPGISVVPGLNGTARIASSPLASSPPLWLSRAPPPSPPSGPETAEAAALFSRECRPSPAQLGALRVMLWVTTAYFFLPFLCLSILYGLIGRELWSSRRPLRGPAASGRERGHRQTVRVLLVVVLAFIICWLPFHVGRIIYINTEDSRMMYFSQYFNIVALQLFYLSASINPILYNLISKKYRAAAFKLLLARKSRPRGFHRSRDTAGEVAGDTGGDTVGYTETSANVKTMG

[9] = target: Wee1-like protein kinase (Homo sapiens) (UniProt P30291); assay: WEE1 Invitrogen selectivity data (BI); conditions: Compound concentration 3.0 uM
Chain of Wee1-like protein kinase (Homo sapiens) (P30291 whole entry, looked up): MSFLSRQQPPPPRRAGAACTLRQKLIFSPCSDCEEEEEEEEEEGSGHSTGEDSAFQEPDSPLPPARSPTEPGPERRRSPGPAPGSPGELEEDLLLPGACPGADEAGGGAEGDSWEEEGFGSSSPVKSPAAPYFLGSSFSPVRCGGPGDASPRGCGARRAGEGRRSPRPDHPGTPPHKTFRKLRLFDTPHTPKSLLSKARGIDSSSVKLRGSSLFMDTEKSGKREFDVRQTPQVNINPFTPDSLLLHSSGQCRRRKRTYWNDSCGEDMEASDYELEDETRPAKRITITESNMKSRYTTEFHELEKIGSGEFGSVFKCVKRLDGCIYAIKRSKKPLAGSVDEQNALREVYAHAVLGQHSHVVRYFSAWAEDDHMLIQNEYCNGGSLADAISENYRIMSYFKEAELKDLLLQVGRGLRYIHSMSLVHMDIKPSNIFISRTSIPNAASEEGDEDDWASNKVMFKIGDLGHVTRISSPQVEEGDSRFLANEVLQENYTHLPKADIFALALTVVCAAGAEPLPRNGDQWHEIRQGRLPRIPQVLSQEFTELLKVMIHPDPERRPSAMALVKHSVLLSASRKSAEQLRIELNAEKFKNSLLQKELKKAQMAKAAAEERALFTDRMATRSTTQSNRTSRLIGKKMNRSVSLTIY

[10] = target: Type-2 angiotensin II receptor (Homo sapiens) (UniProt P50052); assay: AT2/H Cerep selectivity data (BI); conditions: Compound concentration 20.0 uM
[11] = target: Gamma-aminobutyric acid receptor subunit alpha-1 (Rattus norvegicus) (UniProt P62813); assay: BZD/CENTR/R Cerep selectivity data (BI); conditions: Compound concentration 20.0 uM
[12] = target: Epidermal growth factor receptor (Homo sapiens) (UniProt P00533); assay: EGFR Invitrogen selectivity data (BI); conditions: Compound concentration 3.0 uM
[13] = target: T2, Interleukin-1 receptor-associated kinase 4 (Homo sapiens) (UniProt Q9NWZ3); assay: IRAK4 Invitrogen selectivity data (BI); conditions: Compound concentration 3.0 uM
T2 sequence (whole entry): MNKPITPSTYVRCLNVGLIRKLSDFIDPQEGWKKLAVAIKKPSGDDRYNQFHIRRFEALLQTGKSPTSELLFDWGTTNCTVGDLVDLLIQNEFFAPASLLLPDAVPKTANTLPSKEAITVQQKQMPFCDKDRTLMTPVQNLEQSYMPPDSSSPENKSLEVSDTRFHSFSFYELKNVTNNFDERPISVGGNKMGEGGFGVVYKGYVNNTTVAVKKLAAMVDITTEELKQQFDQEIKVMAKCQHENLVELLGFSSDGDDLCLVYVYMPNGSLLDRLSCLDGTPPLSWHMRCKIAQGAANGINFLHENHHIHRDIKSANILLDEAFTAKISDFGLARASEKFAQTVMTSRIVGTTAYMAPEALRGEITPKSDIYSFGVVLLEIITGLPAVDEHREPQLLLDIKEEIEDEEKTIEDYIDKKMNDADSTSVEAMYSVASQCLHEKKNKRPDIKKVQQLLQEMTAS

[14] = target: Hepatocyte growth factor receptor (Homo sapiens) (UniProt P08581); assay: MET Invitrogen selectivity data (BI); conditions: Compound concentration 3.0 uM
[15] = target: Serine/threonine-protein kinase 24 (Homo sapiens) (UniProt Q9Y6E0); assay: STK24 Invitrogen selectivity data (BI); conditions: Compound concentration 3.0 uM
Chain of Serine/threonine-protein kinase 24 (Homo sapiens) (Q9Y6E0 whole entry, looked up): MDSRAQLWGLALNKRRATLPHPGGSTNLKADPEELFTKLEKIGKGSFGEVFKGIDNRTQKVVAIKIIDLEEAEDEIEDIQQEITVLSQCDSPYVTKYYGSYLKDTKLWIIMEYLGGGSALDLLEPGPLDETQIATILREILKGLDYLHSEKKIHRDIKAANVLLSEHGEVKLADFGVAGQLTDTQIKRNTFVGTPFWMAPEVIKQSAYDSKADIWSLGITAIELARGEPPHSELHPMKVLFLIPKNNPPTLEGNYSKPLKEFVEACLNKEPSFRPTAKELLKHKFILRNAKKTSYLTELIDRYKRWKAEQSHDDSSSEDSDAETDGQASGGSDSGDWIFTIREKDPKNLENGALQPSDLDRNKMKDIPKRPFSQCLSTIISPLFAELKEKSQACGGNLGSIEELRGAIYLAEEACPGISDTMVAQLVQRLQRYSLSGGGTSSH

[16] = target: Muscarinic acetylcholine receptor M3 (Homo sapiens) (UniProt P20309); conditions: Compound concentration 10.0 uM
Chain of Muscarinic acetylcholine receptor M3 (Homo sapiens) (P20309 whole entry, looked up): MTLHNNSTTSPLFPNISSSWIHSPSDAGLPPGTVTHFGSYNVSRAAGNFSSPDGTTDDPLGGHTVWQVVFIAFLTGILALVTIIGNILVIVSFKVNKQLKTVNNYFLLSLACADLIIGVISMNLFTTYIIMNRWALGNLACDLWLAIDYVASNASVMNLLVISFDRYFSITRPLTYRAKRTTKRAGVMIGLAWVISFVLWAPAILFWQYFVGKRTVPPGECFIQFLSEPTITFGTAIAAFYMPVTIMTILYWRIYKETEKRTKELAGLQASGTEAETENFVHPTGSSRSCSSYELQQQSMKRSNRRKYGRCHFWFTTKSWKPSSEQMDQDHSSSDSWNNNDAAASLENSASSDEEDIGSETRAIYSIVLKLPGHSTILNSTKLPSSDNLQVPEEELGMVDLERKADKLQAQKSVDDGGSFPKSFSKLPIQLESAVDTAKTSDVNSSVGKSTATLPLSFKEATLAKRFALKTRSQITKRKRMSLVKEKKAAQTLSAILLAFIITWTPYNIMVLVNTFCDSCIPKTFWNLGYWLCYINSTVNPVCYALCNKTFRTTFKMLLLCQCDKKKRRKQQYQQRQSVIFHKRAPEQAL

[17] = target: Calcium/calmodulin-dependent protein kinase kinase 2 (Homo sapiens) (UniProt Q96RR4); assay: CAMKK2 Invitrogen selectivity data (BI); conditions: Compound concentration 3.0 uM
Chain of Calcium/calmodulin-dependent protein kinase kinase 2 (Homo sapiens) (Q96RR4 2-588 limits assumed): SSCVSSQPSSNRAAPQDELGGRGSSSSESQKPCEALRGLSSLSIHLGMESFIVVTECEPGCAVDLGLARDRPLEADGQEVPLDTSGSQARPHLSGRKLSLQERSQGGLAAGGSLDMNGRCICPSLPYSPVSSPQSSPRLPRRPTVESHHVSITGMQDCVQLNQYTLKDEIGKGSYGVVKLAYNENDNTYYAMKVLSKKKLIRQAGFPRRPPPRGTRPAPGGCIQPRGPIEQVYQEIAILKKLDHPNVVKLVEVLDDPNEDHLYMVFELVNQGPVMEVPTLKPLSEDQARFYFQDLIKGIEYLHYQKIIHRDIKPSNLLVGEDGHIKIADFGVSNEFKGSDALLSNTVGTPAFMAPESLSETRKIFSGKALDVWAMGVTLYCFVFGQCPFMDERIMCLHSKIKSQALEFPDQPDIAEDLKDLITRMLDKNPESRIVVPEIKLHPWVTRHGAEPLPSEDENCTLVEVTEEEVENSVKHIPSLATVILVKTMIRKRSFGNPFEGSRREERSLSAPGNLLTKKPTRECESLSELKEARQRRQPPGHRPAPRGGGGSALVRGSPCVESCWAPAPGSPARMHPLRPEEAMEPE

[18] = target: Cysteinyl leukotriene receptor 1 (Homo sapiens) (UniProt Q9Y271); assay: LTD4/H Cerep selectivity data (BI); conditions: Compound concentration 20.0 uM
[19] = target: Cannabinoid receptor 1 (Homo sapiens) (UniProt P21554); assay: CB1 Eurofins-Panlabs selectivity data (BI); conditions: Compound concentration 10.0 uM
[20] = target: Adenosine receptor A1 (Homo sapiens) (UniProt P30542); assay: A1/HU Eurofins-Panlabs selectivity data (BI); conditions: Compound concentration 10.0 uM
Chain of Adenosine receptor A1 (Homo sapiens) (P30542 whole entry): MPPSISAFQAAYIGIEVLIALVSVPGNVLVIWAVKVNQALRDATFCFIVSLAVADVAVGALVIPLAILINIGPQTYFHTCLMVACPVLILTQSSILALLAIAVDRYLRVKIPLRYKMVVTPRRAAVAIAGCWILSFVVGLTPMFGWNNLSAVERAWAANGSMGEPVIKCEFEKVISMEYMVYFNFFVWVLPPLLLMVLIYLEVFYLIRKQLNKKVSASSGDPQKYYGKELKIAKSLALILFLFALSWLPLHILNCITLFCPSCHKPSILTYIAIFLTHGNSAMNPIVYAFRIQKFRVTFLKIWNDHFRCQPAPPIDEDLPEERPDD

[21] = target: Receptor-interacting serine/threonine-protein kinase 2 (Homo sapiens) (UniProt O43353); assay: RIPK2 Invitrogen selectivity data (BI); conditions: Compound concentration 3.0 uM
[22] = target: BDNF/NT-3 growth factors receptor (Homo sapiens) (UniProt Q16620); assay: NTRK2 Invitrogen selectivity data (BI); conditions: Compound concentration 3.0 uM
[23] = target: Dual specificity protein kinase CLK2 (Homo sapiens) (UniProt P49760); assay: CLK2 Invitrogen selectivity data (BI); conditions: Compound concentration 3.0 uM
[24] = target: Dual specificity protein kinase CLK1 (Homo sapiens) (UniProt P49759); assay: CLK1 Invitrogen selectivity data (BI); conditions: Compound concentration 3.0 uM
[25] = target: Sodium- and chloride-dependent GABA transporter 1 (Rattus norvegicus) (UniProt P23978); assay: GABATRANS/R Cerep selectivity data (BI); conditions: Compound concentration 20.0 uM
[26] = target: T3, G protein-coupled receptor kinase 3 (Homo sapiens) (UniProt P35626); assay: ADRBK2 Invitrogen selectivity data (BI); conditions: Compound concentration 3.0 uM
T3 sequence (whole entry): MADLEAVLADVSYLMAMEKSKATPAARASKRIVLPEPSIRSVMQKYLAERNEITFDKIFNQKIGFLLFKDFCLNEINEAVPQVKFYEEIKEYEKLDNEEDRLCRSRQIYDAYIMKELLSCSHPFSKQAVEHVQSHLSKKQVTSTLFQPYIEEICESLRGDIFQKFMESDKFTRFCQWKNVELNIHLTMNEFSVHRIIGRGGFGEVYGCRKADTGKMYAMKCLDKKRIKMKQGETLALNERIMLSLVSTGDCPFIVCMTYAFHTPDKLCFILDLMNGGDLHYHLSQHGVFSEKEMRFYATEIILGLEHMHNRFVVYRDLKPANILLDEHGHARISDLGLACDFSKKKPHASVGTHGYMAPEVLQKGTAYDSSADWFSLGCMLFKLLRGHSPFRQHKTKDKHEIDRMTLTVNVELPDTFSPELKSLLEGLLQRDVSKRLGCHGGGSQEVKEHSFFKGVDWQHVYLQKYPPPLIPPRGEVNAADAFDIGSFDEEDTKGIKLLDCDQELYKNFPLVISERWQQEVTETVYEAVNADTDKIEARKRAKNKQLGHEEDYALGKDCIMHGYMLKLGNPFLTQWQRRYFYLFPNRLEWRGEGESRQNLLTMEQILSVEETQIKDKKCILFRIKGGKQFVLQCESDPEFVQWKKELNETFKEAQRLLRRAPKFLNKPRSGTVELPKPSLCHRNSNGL

Chain of Cysteinyl leukotriene receptor 1 (Homo sapiens) (Q9Y271 whole entry): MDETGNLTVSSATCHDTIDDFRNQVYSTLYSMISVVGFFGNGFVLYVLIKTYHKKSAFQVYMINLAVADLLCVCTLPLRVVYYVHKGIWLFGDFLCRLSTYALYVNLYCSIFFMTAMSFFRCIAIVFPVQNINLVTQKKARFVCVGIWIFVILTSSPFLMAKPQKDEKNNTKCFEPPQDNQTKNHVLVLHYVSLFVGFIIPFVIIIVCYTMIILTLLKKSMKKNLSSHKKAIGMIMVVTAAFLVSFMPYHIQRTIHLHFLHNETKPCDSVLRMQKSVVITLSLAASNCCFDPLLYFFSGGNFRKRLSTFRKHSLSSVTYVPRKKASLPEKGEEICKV

CN(C)C(=O)Cn1cc(-c2nc([C@@](C)(c3ccc(-c4cnc(N)nc4)cc3)C3CC3)no2)cn1 [BI 665915]
inactive: residual activity [1] 96% | residual activity [2] 100% | residual activity [3] 127% | residual activity [4] 97% | residual activity [5] 94.5% | residual activity [6] 101% | residual activity [7] 60% | residual activity [8] 109% | residual activity [9] 100% | residual activity [10] 98% | residual activity [11] 117% | residual activity [12] 104% | residual activity [13] 102% | residual activity [14] 97% | residual activity [15] 100% | inhibition [16] 7.43% | residual activity [17] 98% | residual activity [18] 101% | residual activity [19] 91% | residual activity [20] 75% | residual activity [21] 91% | residual activity [22] 94.5% | residual activity [23] 95.5% | residual activity [24] 96.5% | residual activity [25] 96% | residual activity [26] 100%
